In brackets after ≈: the same amount, converted by molar mass.
Columns and labels:
TrkA [1] = target: T1, TrkA (Rattus norvegicus, UniProt P35739); test: PC-12/luc/Elk1 luciferase reporter cellular assay (NGF-induced); assay type: cell-based; details: 50 ng/ml NGF, 18 h treatment
T1 construct: endogenous in cells; host or cells: PC-12 and PC-12/luc/Elk1 (rat pheochromocytoma)
Text: A stably transfected cell line was generated in order to assess the capability of the compounds to inhibit the activation of TrkA receptor in the natural (neural) cellular context. Once the endogenic TrkA of the PC-12/luc/Elk1 cell line becomes activated, the downstream events result in phosphorylation of Elk1, the GAL4-dbd fused to Elk1 binds then to GAL4 UAS and activates the transcription of luciferase (FIG. 3). To address the suitability of the generated system for screening application, the Z′-factor was determined (see also Examples section). […] Z′-factor value above 0.5 is considered an indication of a high quality assay. The timeframe of 18 hours with the highest Z′-factor value was chosen for subsequent experiments.
PC-12 (rat adrenal pheochromocytoma cell line) cells were transfected using LIPOD293 DNA In Vitro Transfection Reagent (SignaGen) with 1 μg of pFA2-Elk1 plasmid and 4 μg of pFR-LUC plasmid (PathDetect Elk1 trans-Reporting System; Agilent Technologies). pFA2-Elk1 plasmid codes for the fusion protein consisting of GAL4-dbd (DNA-binding domain) followed by Elk1 transcription factor and contains Geneticin G418 resistance gene neomycin. pFR-LUC plasmid codes for GAL4 upstream activation sequence (UAS) followed by luciferase reporter gene. A puromycin resistance gene was introduced to the pFR-LUC plasmid using Bst1107I and NdeI restrictases from pGL4.22[luc2CP/Puro] (Promega). The selection of transfected cells was initiated two days after the transfection with addition of 300 μg/ml of G418 (Sigma) and 0.75 μg/ml of puromycin (Sigma-Aldrich) and continued for about one and a half months until distinct cell colonies could be picked, plated, and tested for responsiveness to NGF. Generated cell line, called hereafter PC-12/luc/Elk1, was maintained in Dulbecco's Modified Eagle's Medium (DMEM; PAA) containing 6% fetal bovine serum (FBS; PAA), 6% horse serum (HS; PAA), 1% penicillin/streptomycin (PS; Gibco), 300 μg/ml of Geneticin G418, and 0.75 μg/ml of puromycin. […] PC-12 cells were maintained in DMEM containing 6% FBS, 6% HS, and 1% PS.
PC-12/luc/Elk1 cells were plated one day before the assay on 96 well plates in 25,000 cells per well. […] The plate was subjected to 10 minutes of shaking and, thereafter, analyzed using TECAN plate reader. […]
The IC50's of the compounds were determined using cellular and biochemical assays. In the cellular assays, using PC-12/luc/Elk1 and MG87/TrkB/luc/Elk1 cells, the compounds were assessed in gradual dilutions of the compounds in triplets together with NGF or BDNF (Peprotech), respectively. TrkA inhibition was determined using same methodology as for measuring the Z′-factor with 18 h treatment time. […]

TrkA [2] = target: T2, TrkA (Homo sapiens, UniProt P04629); test: In vitro kinase profiling (48 kinases), TrkA; assay type: biochemical; details: 1 μM concentration; read-out: residual activity of TrkA
T2 construct: purchased ProQinase, Germany (custom-ordered assay service)
T2 sequence (P04629 33-796): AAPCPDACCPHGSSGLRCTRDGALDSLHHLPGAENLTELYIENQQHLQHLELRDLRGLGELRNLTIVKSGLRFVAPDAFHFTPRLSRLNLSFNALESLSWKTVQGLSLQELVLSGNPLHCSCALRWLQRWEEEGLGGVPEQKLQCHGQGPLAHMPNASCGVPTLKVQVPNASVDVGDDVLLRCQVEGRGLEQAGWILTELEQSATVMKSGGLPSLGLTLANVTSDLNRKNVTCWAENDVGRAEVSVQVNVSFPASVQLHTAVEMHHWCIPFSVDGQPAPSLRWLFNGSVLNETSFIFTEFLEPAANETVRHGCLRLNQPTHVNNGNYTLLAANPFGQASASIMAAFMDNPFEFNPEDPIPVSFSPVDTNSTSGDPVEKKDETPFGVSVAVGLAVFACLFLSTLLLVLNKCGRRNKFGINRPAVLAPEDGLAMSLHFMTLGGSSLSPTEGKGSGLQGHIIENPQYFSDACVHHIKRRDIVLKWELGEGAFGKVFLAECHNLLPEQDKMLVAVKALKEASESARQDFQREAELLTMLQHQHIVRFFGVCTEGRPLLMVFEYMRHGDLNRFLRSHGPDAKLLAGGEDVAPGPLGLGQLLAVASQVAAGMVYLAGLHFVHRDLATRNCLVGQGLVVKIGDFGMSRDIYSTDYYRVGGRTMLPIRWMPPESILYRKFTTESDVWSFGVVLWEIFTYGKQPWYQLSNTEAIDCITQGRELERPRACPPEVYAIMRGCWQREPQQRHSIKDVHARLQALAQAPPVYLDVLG
Procedure: According to the results, at concentration of 100 nM all compounds were relatively TrkA specific inhibiting only up to 3 off-target kinases, while reducing the activity of TrkA by at least 82% at 100 nM concentration and 94% at 1 μM concentration. At 100 nM, 2a25 was able to inhibit only TrkA. […] Kinases that were inhibited by most of the compounds at 1 concentration included Aurora-B, CAMKK2, CHK2, IRAK4, LCK, and MAP3K11.
(§1) The biochemical kinase assays were custom ordered from ProQinase, Germany.

[3] = test system: cortical neurons, PC-12 cells or dividing MG87/TRKB/luc/Elk1 cells; test: Toxic or adverse effect on cells (summary statement); assay type: cell-based
Text: The Trk antagonists of the invention share a similar indole-like basic structure; however, substituent substitution yielded compounds with markedly high activity and specificity for the Trk family.

Syk [4] = target: T3, Syk (Homo sapiens, UniProt P43405); details: 1 μM concentration; cited from earlier work
TrkA [5] = target: T2, TrkA; details: 1 μM concentration; cited from earlier work
Syk [6] = target: T3, Syk; details: cited from earlier work
Syk [7] = target: T3, Syk; test: In vitro kinase profiling (48 kinases), Syk; assay type: biochemical; parameters: Aurora-B, CaMMK2, Chk2, Irak4, Lck, Map3K11, Syn aa1-635, TrkA, TrkB, and TrkC; purchased ProQinase, Germany (custom-ordered assay service); details: for inhibition of Syk: own experiments
Text: as §1

TrkA [8] = target: T1, TrkA; test: Western blot of phosphorylated TrkA in PC-12 cells; assay type: cell-based; details: concurrently with NGF, statistically significant reduction at 1 μM
Procedure: (§2) The compounds were tested on PC-12 and MG87/TrkB/luc/Elk1 cells that express TrkA and TrkB, respectively. The cells were treated concurrently with NGF or BDNF and the compounds at three different concentrations. The levels of phosphorylated kinases were assessed using respective antibodies and further quantification of western blot signals. […] Additionally, in these two distinct cellular systems the activity of the Trk proteins may be incomparable due to their different concentration or interaction partners that can affect their behavior. For this reason, most probably there is no big selectivity of these compounds for the Trk kinases which is expected, as the ATP-binding pockets of Trk proteins are highly similar.
(§3) The PC-12 and MG87/TrkB/luc/Elk1 cells were plated on 6-well plates one day prior to the assay. Cells were treated for 10 minutes with compounds and simultaneously with 50 ng/ml of NGF (PC-12 cells) or BDNF (MG87/TrkB/luc/Elk1 cells). 0.1% of DMSO was used to determine the base level, 0.1% of DMSO concurrently with 50 ng/ml of NGF or BDNF served as a negative control and 0.1% of DMSO concurrently with 5 nM of AZ-23 as a positive control. Thereafter, western blotting was performed as described previously. Antibodies used included: rabbit anti-TrkA (#06-574; 1:1000) from Millipore; rabbit anti phospho-TrkA (#9141; 1:1000), rabbit anti phospho-TrkA/TrkB (#4619; 1:1000), rabbit anti-TrkB (#4603; 1:1000) and rabbit anti phospho-Akt (#4058; 1:3000) from Cell Signaling; mouse anti phosphor-Erk1/2 (#sc-7383; 1:1000) from Santa Cruz and anti-tubulinβ clone E7 (1:1000) from Prof. Michael Klymkovsky.

TrkB = target: T4, TrkB (Rattus norvegicus, UniProt Q63604); test: Western blot of phosphorylated TrkB in MG87/TrkB/luc/Elk1 cells; assay type: cell-based; details: concurrently with BDNF, statistically significant reduction at 1 μM
T4 construct: expressed in transfected cells; host or cells: MG87/TrkB/luc/Elk1
T4 sequence (Q63604 32-821): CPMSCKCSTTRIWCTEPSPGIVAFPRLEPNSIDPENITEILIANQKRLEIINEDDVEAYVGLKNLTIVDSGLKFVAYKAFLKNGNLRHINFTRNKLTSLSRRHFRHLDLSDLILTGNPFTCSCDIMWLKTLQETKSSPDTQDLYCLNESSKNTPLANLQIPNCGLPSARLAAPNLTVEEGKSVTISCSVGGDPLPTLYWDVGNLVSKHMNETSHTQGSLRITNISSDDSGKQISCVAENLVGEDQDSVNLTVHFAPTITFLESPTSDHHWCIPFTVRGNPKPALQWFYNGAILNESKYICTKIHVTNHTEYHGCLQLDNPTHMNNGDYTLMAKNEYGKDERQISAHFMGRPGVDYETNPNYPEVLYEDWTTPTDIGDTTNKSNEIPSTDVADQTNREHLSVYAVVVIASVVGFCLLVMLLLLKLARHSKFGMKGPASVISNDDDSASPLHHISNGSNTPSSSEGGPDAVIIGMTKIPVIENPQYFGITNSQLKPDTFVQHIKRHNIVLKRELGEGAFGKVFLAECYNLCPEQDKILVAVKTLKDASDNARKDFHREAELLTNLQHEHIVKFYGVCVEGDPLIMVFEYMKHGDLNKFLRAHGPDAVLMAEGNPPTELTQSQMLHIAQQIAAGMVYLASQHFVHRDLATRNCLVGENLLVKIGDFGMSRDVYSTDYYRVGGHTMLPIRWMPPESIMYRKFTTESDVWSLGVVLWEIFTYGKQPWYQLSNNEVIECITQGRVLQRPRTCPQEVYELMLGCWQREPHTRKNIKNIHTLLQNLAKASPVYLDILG
Procedure: as §2, §3

Akt and Erk1/2 = test: Western blot of phosphorylated downstream kinases; assay type: cell-based; details: compared to NGF or BDNF alone
Procedure: as §2, §3

[9] = target: 48 kinases representing the human kinome; test: In vitro kinase profiling, panel of 48 kinases (off-targets); assay type: biochemical; details: 100 nM
Text: as §1

Rat cortical cells = test: Viability of primary cortical neurons (neuron count); assay type: cell-based; details: 24 h, even at 1 μM concentration
Procedure: Neurons were grown in NEUROBASAL, a medium supplemented with B27 with phenol red on ploy-L-lysine-coated 35 mm glass bottomed dishes. Culture media and supplements were obtained from Invitrogen (Carlsbad, Calif.). For viability measurements neurons were first transfected with neuronal maker, pAAV-hSyn-DsRedExpress obtained from Addgene (Cambridge, Mass.) allowing better to assess the morphology of individual neurons. Briefly, the condition medium was replaced with 100 μL Opti-MEM 1 medium, containing 2% Lipofectamine 2000 and 1-2 μg of total DNA. Neurons were incubated for 3-4 hrs, after which fresh medium was added.

MG87/TrkB/luc/Elk1 cells = test: Cellular ATP content, CellTiter-Glo viability assay; assay type: cell-based; details: different concentrations, 24 h
Procedure: ATP was measured at least from 8 different wells per treatment condition.

In vivo toxicology study = details: C57/B16 mice
Aqueous solubility = assay type: physicochemical; details: room temperature

T1 sequence (P35739 33-799): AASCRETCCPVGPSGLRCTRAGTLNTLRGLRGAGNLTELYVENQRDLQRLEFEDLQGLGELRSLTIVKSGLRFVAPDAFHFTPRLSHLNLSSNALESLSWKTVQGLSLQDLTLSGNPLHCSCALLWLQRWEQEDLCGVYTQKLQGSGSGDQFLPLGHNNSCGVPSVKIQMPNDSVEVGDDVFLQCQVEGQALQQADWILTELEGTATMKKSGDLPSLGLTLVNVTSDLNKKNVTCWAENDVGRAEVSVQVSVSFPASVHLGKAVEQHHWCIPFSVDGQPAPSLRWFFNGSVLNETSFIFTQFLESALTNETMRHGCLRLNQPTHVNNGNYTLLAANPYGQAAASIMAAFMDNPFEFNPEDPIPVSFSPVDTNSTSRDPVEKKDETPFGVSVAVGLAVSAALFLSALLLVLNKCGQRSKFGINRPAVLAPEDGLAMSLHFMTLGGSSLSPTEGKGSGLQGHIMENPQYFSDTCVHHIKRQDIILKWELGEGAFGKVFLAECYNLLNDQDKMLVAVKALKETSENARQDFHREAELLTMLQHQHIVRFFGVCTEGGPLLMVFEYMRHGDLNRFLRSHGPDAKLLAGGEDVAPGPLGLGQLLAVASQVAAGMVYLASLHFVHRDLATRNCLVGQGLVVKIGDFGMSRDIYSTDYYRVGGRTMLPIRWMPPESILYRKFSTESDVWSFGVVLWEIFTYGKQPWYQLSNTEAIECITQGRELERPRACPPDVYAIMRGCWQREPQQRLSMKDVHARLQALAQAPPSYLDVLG

Row | Structure (SMILES) | phosphorylation of TrkA (TrkA [8]) | phosphorylation of TrkB (TrkB) | IC50 (TrkA [1]) | remaining activity at 1 µM (TrkA [2]) | toxic or adverse effect on cells [3] | residual activity of Syk (Gao et al.) (Syk [4]) | residual activity of TrkA (Gao et al.) (TrkA [5]) | reported effect on Syk activity (Syk [6]) | inhibition of Syk (Syk [7]) | remaining activity at 1 µM (Syk [7]; read-out: residual activity of Syk) | phosphorylation of downstream kinases Akt and Erk1/2 (Akt and Erk1/2) | kinases whose activity was reduced at least by 50% [9] | number of viable neurons (Rat cortical cells) | cell viability (cellular ATP content) (MG87/TrkB/luc/Elk1 cells) | toxic effects in mice (In vivo toxicology study) | solubility (Aqueous solubility; aqueous medium (not further specified)) | aqueous solubility (Aqueous solubility)
1 | Cn1cc(/C=C2\C(=O)Nc3ccc(S(N)(=O)=O)cc32)c2ccccc21 [Compound 2a21] |  |  | ≤ 100 nM | 2% | no toxic or adverse effect | 38% | 1% | Syk inhibitors | failed to inhibit Syk at significant levels | 47% |  |  |  |  |  |  | 
2 | COc1ccc2[nH]cc(/C=C3\C(=O)Nc4ccc(S(N)(=O)=O)cc43)c2c1 [Compound 2a23, (Z)-3-((5-methoxy-1H-indol-3-yl)methylene)-2-oxindole-5-sulfonamide] |  |  | ≤ 100 nM |  | no toxic or adverse effect |  |  | Syk inhibitors | failed to inhibit Syk at significant levels |  |  | only one kinase in addition to the Trk kinases |  |  |  |  | 
3 | COc1ccc2c(c1)c(/C=C1\C(=O)Nc3ccc(S(=O)(=O)N(C)C)cc31)cn2C [Compound 2a25, (Z)-3-((5-methoxy-1-methyl-1H-indol-3-yl)methylene)-N,N-dimethyl-2-oxindole-5-sulfonamide] | effectively inhibited | effectively inhibited | ≤ 100 nM |  | no toxic or adverse effect |  |  | not to suppress Syk activity |  |  | diminished | only TrkA | No reduction | no effect | no toxic effects | 3.2 ± 0.1 µg/mL (≈ 7.78 µM) | 7.8 ± 0.2 µM (≈ 3.21 µg/mL)
4 | CN(C)S(=O)(=O)c1ccc2c(c1)/C(=C/c1cn(C)c3ccc(O)cc13)C(=O)N2 [Compound 3a25, (Z)-3-((5-hydroxy-1-methyl-1H-indol-3-yl)methylene)-N,N-dimethyl-2-oxindole-5-sulfonamide] |  |  | ≤ 100 nM |  | no toxic or adverse effect |  |  |  |  |  |  | only one kinase in addition to the Trk kinases |  |  |  |  | 

Second part, led by results:

Row | phosphorylation of TrkA (TrkA [8]) | phosphorylation of TrkB (TrkB) | Structure (SMILES) | IC50 (TrkA [1]) | remaining activity at 1 µM (TrkA [2]) | toxic or adverse effect on cells [3] | residual activity of Syk (Gao et al.) (Syk [4]) | residual activity of TrkA (Gao et al.) (TrkA [5]) | reported effect on Syk activity (Syk [6]) | inhibition of Syk (Syk [7]) | remaining activity at 1 µM (Syk [7]; read-out: residual activity of Syk) | phosphorylation of downstream kinases Akt and Erk1/2 (Akt and Erk1/2) | kinases whose activity was reduced at least by 50% [9] | number of viable neurons (Rat cortical cells) | cell viability (cellular ATP content) (MG87/TrkB/luc/Elk1 cells) | toxic effects in mice (In vivo toxicology study) | solubility (Aqueous solubility; aqueous medium (not further specified)) | aqueous solubility (Aqueous solubility)
5 | effectively inhibited | effectively inhibited | COc1ccc2c(c1)c(/C=C1\C(=O)Nc3ccc(S(N)(=O)=O)cc31)cn2C [Compound 2a22] |  |  | no toxic or adverse effect |  |  |  |  |  | diminished |  |  |  |  |  | 
6 | effectively inhibited | effectively inhibited | CNS(=O)(=O)c1ccc2c(c1)/C(=C/c1cn(C)c3ccc(OC)cc13)C(=O)N2 [Compound 4a22, (Z)-3-((5-methoxy-1-methyl-1H-indol-3-yl)methylene)-N-methyl-2-oxindole-5-sulfonamide] |  |  | no toxic or adverse effect |  |  |  |  |  | diminished |  |  |  |  |  | 

Source: US20170057948A1, “INDOLE-LIKE TRK RECEPTOR ANTAGONISTS” (Tallinn University of Technology, priority 2015, published 2017)
